Measurements published in paper PMC8760323, “Single-chain tandem macrocyclic peptides as a scaffold for growth factor and cytokine mimetics” (Communications Biology, 2022).
Where two headings read alike, the source gives them in different places.

Assays:
[1] = system: HuCCT1 cells; assay: Branching morphogenesis in collagen gel; assay type: cell-based, human; conditions: 7 days; 0.44 nM rhHGF or […] aMD4dY-PA22
Protocol: HuCCT1 cells at a density of 20,000 cells/well were mixed with 400 μL of ice-cold collagen-containing culture medium (DMEM/Nutrient Mixture F-12, CellMatrix type IA [Nitta Gelatin Inc., Osaka, Japan], 2.2 g/L of sodium bicarbonate, 4.77 g/L of 4-(2-hydroxyethyl)-1-piperazineethanesulfonic acid [HEPES], and 0.005 N sodium hydroxide) and incubated in a 48-well cell culture plate in 5% CO2 at 37 °C for gelation. The cells encapsulated in the collagen gel were cultured with 500 μL of RPMI 1640 medium supplemented with 10% FBS with or without 0.44 nM HGF or 6.3 nM aMD4dY-PA22 in 5% CO2 at 37 °C. The culture medium was changed every 3 days. At day 7, the cells were observed by inverted microscopy.

[2] = system: HuCCT1 cells; assay: Migration assay (Transwell); assay type: cell-based, human; conditions: 24 h, 1.3 nM rhHGF or 32 nM aMD4dY-PA22; for Relative migration: standardized by mock
Protocol: HuCCT1 cells at a density of 20,000 cells/well in RPMI 1640 medium supplemented with 0.5% FBS were added to 24-well Transwell inserts. In the lower layer, RPMI 1640 supplemented with 0.5% FBS with or without 1.3 nM rhHGF or 32 nM aMD4dY-PA22 was added. The cells were incubated for 24 h in 5% CO2 at 37 °C. The Transwell inserts were washed thrice with PBS, stained with 0.5% crystal violet (Nacalai Tesque)/methanol for 10 min, and washed with distilled water. Images of migrated cells were captured using BZ-X fluorescence microscopy (Keyence Corporation, Osaka, Japan), and cell migration levels were quantified by stained areas of the Transwell inserts.

[3] = system: Met; assay: Cell-based phospho-Met ELISA (HuCCT1 cells); parameters: species or system human; conditions: phospho-Met ELISA and Erk signaling reporter assay
Protocol: The phosphorylation level of Met was evaluated according to a previously reported method[6],[32], with slight modifications. In brief, HuCCT-1 cells at a density of 10,000 cells/well were seeded on 96-well cell culture plates and incubated overnight in 5% CO2 at 37 °C. The cells were stimulated by rhHGF, purified HGF mimetic STaMPtides, and monomeric aMD4dY for 10 min in a 5% CO2 incubator at 37 °C. Next, cells were fixed using 4% paraformaldehyde in phosphate-buffered saline (PBS) for 20 min. Cells were washed three times with PBS and blocked with 1% BSA and 0.02% Triton X-100 in PBS for 30 min at room temperature. Cells were incubated with 1:1000 diluted phospho-Met (Tyr1234/1235) (D26) XP Rabbit mAb (Cell Signaling Technology) supplemented with 1% BSA in PBS at 4 °C overnight. After washing three times with PBS, the cells were incubated with 1:1000 diluted […] HRP-linked IgG antibody (Cell Signaling Technology) supplemented with 1% BSA in PBS at room temperature for 3 h. Cells were washed four times with PBS and incubated with 100 μL TMB substrate for 30 min. The reaction was stopped with an equal volume of 0.2 N sulfuric acid, and absorbance was quantified at 450 nm by the Molecular Imager ChemiDoc XRS System (Bio-Rad).

[4] = system: BM-hMSCs; assay: Flow cytometry of MSC surface markers; assay type: cell-based, human; conditions: for surface marker expression of stimulated BM-hMSCs: 3 days; for CD45 Positive (%) / CD90 Positive (%): flow cytometry, Fig. S11b
Protocol: The marker expression of BM-hMSCs unstimulated or stimulated using 1.3 nM rhHGF or 32 nM aMD4dY-PA22 for 3 days were analyzed via flow cytometry. Harvested cells were blocked with PBS supplemented with Human TruStain FcX (Biolegend) for 10 min on ice. […] For the isotype controls, 1:10 diluted PE mouse IgG1 k Isotype (Biolegend) and FITC mouse IgG1 k Isotype (Biolegend) were utilized. After washing two times with a cell stain buffer, cells were analyzed using Attune NxT flow cytometer (Thermo Fisher Scientific).

[5] = molecular target: T1, recombinant human Met ectodomain-Fc (Homo sapiens, UniProt P08581); assay: SPR analysis, human Met ectodomain; assay type: binding
T1 construct: recombinant human Met ectodomain-Fc; purchased R&D Systems
Protocol: Binding constants of the STaMPtides and monomeric macrocyclic peptides to their corresponding receptor ectodomains were determined by SPR analysis using Biacore T200 (Cytiva). HBS-EP + buffer (Cytiva) containing 0.1% dimethyl sulfoxide (DMSO; Sigma-Aldrich, St. Louis, MO, USA) was used as the running buffer. As ligands, recombinant human Met ectodomain-Fc and human EPOR ectodomain-Fc were immobilized to around 1000 response units on CM5 sensor chips using a human antibody capture kit (Cytiva). STaMPtides and monomeric macrocyclic peptides were injected in five concentrations at a flow rate of 30 μL/min using a single-cycle kinetics method. Binding constants were quantified by analysis of the 1:1 binding model.

T1 sequence (P08581 25-932 limits assumed): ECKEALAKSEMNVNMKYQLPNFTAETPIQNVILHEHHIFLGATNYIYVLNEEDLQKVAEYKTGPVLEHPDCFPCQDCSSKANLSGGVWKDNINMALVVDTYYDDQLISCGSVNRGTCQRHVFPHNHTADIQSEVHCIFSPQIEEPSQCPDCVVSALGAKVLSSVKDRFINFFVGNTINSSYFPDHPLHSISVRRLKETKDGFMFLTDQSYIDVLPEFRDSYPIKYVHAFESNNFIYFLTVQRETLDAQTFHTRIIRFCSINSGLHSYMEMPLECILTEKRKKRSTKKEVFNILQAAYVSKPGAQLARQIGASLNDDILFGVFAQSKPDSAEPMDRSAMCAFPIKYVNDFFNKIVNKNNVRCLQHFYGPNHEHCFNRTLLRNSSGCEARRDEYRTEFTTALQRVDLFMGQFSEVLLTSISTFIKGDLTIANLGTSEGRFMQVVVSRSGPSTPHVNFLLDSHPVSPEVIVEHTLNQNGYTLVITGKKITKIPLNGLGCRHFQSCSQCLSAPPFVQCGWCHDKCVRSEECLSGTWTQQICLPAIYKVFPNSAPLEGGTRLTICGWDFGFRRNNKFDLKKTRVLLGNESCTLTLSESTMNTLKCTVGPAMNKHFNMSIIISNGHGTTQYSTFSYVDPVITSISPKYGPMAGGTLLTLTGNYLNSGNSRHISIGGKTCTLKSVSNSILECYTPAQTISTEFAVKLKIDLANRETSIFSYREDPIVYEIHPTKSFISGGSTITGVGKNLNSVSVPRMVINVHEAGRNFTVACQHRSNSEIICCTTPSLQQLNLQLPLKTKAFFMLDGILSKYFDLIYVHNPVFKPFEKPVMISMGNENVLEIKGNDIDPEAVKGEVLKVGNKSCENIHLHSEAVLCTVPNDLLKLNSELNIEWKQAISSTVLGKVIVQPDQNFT

| Substance | branching morphology [1] | migration [2] | Stained area ([2]; n1) [μm^2] | Stained/Total ([2]; n1) | Stained area ([2]; n2) [μm^2] | Stained/Total ([2]; n2) | Relative migration ([2]; n1) | Relative migration ([2]; n2) | surface marker expression of stimulated BM-hMSCs [4] | CD45 Positive (%) ([4]; replicate 1) | CD90 Positive (%) ([4]; replicate 1) | CD45 Positive (%) ([4]; replicate 2) | CD90 Positive (%) ([4]; replicate 2) | further results |
| --- | --- | --- | --- | --- | --- | --- | --- | --- | --- | --- | --- | --- | --- | --- |
| AET - CRQFNRRTHEVWNLDCG - AAPAAPA PAAPAAPA PAAPAA PG - CRQFNRRTHEVWNLDC (bicyclic or more) [aMD4dY-PA22, HGF mimetic STaMPtide, two aMD4dY macrocycles with a 22-amino-acid PA linker, secreted by C. glutamicum] | showed branched tubular structures | promoted migration of HuCCT1 cells | 1905662 | 0.07439 | 1256153 | 0.04693 | 4.415 | 2.785 | expressed hMSC positive markers (CD105, CD73, CD90) and no negative markers (CD45, CD34) | 0.665 | 99.857 | 1.718 | 99.76 | Met phosphorylation and Erk-SRE signaling activation [3]: at a comparable level with rhHGF; Kd ([5]; Biacore T200, single-cycle kinetics, 1:1 binding model, N = 3, read-out: dissociation constant (KD)): 1 nM; kd ([5]; Table S1, Average of N 1-3): 0.00046 M⁻¹ s⁻¹; kd ([5]; Table S1, N 1): 0.0006 M⁻¹ s⁻¹; Kd ([5]; Table S1, N 1, read-out: KD): 1.3 nM; kd ([5]; Table S1, N 2): 0.00038 M⁻¹ s⁻¹; Kd ([5]; Table S1, N 2, read-out: KD): 0.9 nM; kd ([5]; Table S1, N 3): 0.00039 M⁻¹ s⁻¹; Kd ([5]; Table S1, N 3, read-out: KD): 0.85 nM |
| rhHGF: recombinant human HGF (R&D Systems) | showed branched tubular structures | promoted migration of HuCCT1 cells | 1050763 | 0.03941 | 1394072 | 0.04835 | 2.3393 | 2.87 | expressed hMSC positive markers (CD105, CD73, CD90) and no negative markers (CD45, CD34) | 1.409 | 99.927 | 1.405 | 99.878 |  |
